From EP0453621A1, “Polymer-modified drugs having enhanced biological and pharmacological activities” (W.R. Grace & Co.-Conn., priority 1990, dated 1991)
Ends that are not written are not given here. Peptide text beside a SMILES is read from it.

Assays:
[1] = Circulatory half-life of radioiodinated peptide or conjugate after tail vein injection; assay type: in vivo, C57B1/6 mice; settings: i.v. tail vein
Procedure: The conjugate from Example XIII was passed over a disposable Sephadex G25 column (PD10 from Pharmacia, Inc.) to separate free from polymer-bound peptide. Confirmation of the purity of the conjugate was obtained by HPLC. About 45 µg of conjugate (based on peptide) were radiolabeled with 125-iodine using the well known chloramine-T procedure. Free 125-iodine was separated from radiolabeled conjugate using a PD10 column. Of the original 30 µCi of Na¹²⁵I used for the iodination, more than 23 µCi were incorporated into the conjugate.
Portions of the radiolabeled YRGDS-Prepolymer A conjugate from Example XIV were injected into the tail veins of C57B1/6 mice. As a control, YRGDS free peptide was radioiodinated by the procedure described in Example XIV and also injected. At various times blood was withdrawn from the animals and the amount of radioiodine remaining in the circulation determined using a gamma counter. A biphasic clearance curve (α:β) was obtained for both species. […] Thus by coupling the peptide to this polymer its clearance rate from the circulation is markedly extended.

B16 cell = assay: Inhibition of B16 cell spreading on a plate coated with fibronectin; settings: the conjugate value is based on octapeptide, read-out: concentration for 50% inhibition of cell spreading
Procedure: The biological activity of the conjugate formed in Example XV was determined in an assay which measures inhibition of B16 cell spreading on a plate coated with fibronectin.

Compound | t½α ([1]; first phase of biphasic clearance) [s] | label cleared in initial phase ([1]; in one minute, 125-iodine label) | IC50 (B16 cell) [µM]
N=C(N)NCCC[C@H](NC(=O)[C@@H](N)Cc1ccc(O)cc1)C(=O)NCC(=O)N[C@@H](CC(=O)O)C(=O)N[C@@H](CO)C(=O)O [YRGDS, tyr-arg-gly-asp-ser] (H-YRGDS-OH) | 30 | about 75% | 
GRGDSPAC-Prepolymer A conjugate: peptide gly-arg-gly-asp-ser-pro-ala-cys (SEQ. ID No. 3) conjugated with Prepolymer A (also: conjugated with Prepolymer A, site not given here) |  |  | 340
